Key:
[1] = Amiodarone quantification in tissues by LC/MS after pericardial repair with amiodarone-soaked EBM patch, or IV amiodarone control, ovine model; assay type: in vivo; conditions: sheep, 1000 mg/day, Maximum IV delivery-positive control Average, 1,000 mg/day via IV for 14 days
[2] = as above; assay type: in vivo; conditions: sheep
Description: Specifically, EBM under the tradename CardiaMend™ was used. The device was approximately 1 mm thick (range 0.75-1.54 mm). An ovine model was used for a pericardial repair procedure. […] The EBM patch was then inserted through a hole cut through the pericardium via a mini-thoracotomy approach and secured with sutures at the margins of the pericardial defect. Following closure of the superficial muscle and skin, the animals were recovered, and housed until sacrifice at 3 days, 7 days, and 28 days. […] Following sacrifice, the repair site was explored, and the implant and heart were grossly evaluated for signs of inflammation, scarring, or fibrosis. Gross images were acquired.

CCCCc1oc2ccccc2c1C(=O)c1cc(I)c(OCCN(CC)CC)c(I)c1 [Amiodarone, amiodarone]
concentration at 14 day ([1]; left atrium): 19000 ng/g
concentration at 14 day ([1]; liver): 8000 ng/g
concentration at 14 day ([1]; lung): 27000 ng/g
concentration at 14 day ([1]; right atrium): 33000 ng/g
concentration at 14 day ([1]; ventricles): 9000 ng/g
Amiodarone concentration, Myocardium, Day 3 Average ([2]; EBM 7 cm by 10 cm soaked in 6 mL of 50 mg/mL amiodarone hydrochloride, pericardial patch, myocardium, day 3): 63.50 µg/g
Amiodarone concentration, Left Atrium, EBM drug delivery Day 3-7 Average ([2]; EBM drug delivery, local single dose, left atrium, day 3-7): 96 µg/g
Amiodarone concentration, Liver, EBM drug delivery Day 3-7 Average ([2]; EBM drug delivery, local single dose, liver, day 3-7): 1 µg/g
Amiodarone concentration, Lung, EBM drug delivery Day 3-7 Average ([2]; EBM drug delivery, local single dose, lung, day 3-7): 4 µg/g
Amiodarone concentration, Right Atrium, EBM drug delivery Day 3-7 Average ([2]; EBM drug delivery, local single dose, right atrium, day 3-7): 83 µg/g
Amiodarone concentration, Ventricles, EBM drug delivery Day 3-7 Average ([2]; EBM drug delivery, local single dose, ventricles, day 3-7): 14 µg/g
Amiodarone concentration, Liver, Day 28 Average ([2]; amiodarone-soaked EBM pericardial patch, liver, day 28): below the limit of detection

Source: patent US20250090493A1, “THERAPEUTIC COMPOSITION DELIVERY DEVICE” (Helios Cardio Inc., priority 2021, published 2025)
